Results on 27 molecules are retold here after patent US20250340571A1, “COMPOSITIONS USEFUL FOR MODULATING SPLICING” (Skyhawk Therapeutics, Inc., priority 2022, published 2025).

For one test, the system named is total ATXN3 protein. The test is described as follows: ATXN3 total protein assay (MSD). In kind it is cell-based, human. The conditions noted are these: SK-N-MC cells, 48 h incubation. Here is the method: Human neuroblastoma SK-N-MC cells were seeded at 10,000 cells/well in 384 well plates one day prior to compound treatment. The concentrations of compounds were tested at appropriate doses ranging from 30 μM to 0.6 nM. After incubation for 48 hours, the cells were lysed with 25 μL of lysis buffer containing protease inhibitors, and total ATXN3 protein levels were assessed by Mesoscale Discovery (MSD) assay developed with one pair of anti-ATXN3 antibodies. The capture and detect antibodies were raised in mouse and rabbit respectively. Anti-rabbit MSD-ST antibody was used for secondary antibody.
ATXN3 recombinant protein was used for standards. The readouts were captured with 35 μL of MSD read buffer and multi-array 384-well high binding plates.

The subject of test [1] is ATXN3 pre-mRNA (transcripts containing exon 4). As to the kind of experiment: ATXN3 quantitative splicing assay (qPCR, E4E5 transcripts containing exon 4). In kind it is cell-based. The conditions noted are these: Homo sapiens; SK-N-MC cells, 24 h treatment, qPCR E4E5 primers/probe. The protocol: Human neuroblastoma SK-N-MC cells were plated in 384-well plates at 20,000 cells/well. Twenty-four hours after plating, cells were treated with compounds for 24 h at appropriate concentrations ranging from 30 μM to 0.6 nM (0.3% DMSO). Treated cells were lysed in 15 μL of lysis buffer, and cDNA was synthesized using the Fast Advanced Cells-to-Ct kit. Two μL of each cDNA was used in qPCR reactions to confirm the exon 4 skipped transcripts of ATXN3. A second set of primers/probe E4E5 was used to detect the transcripts containing exon 4. The third set of primers/probe E8E9 was used to detect total gene level of ATXN3. The qPCR reactions were prepared in 384-well plates in 10 μL volume, using TaqMan™ Fast Advanced Master Mix with primers and probes shown in the table below. Reactions were run in a Quant Studio 6 qPCR instrument with default settings.
The primers and probes are listed below in Table 5.
In general terms: Quantitative PCR measures a nucleic acid by following its amplification.

Molecules are shown by their SMILES.

For orientation: IC50 means the point on the concentration scale where inhibition reaches its midpoint. Low values mean greater potency in that assay, high ones weaker potency in that assay. On to `C#Cc1c(C[C@@H](N)[C@H](C)F)sc2c(NCc3cccs3)snc12` [Compound 19, 5-[(2R,3S)-2-amino-3-fluorobutyl]-6-ethynyl-N-(thiophen-2-ylmethyl)thieno[3,2-c][1,2]thiazol-3-amine], for which the IC50 (with total ATXN3 protein; in test [1]) was 101 to 500 nM each time.
As to `C#Cc1c(C[C@@H](N)COC)sc2c(NCc3cccs3)snc12` [Compound 15, 7-[(R)-2-amino-3-methoxypropyl]-8-ethynyl-4-thenylamino-3,6-dithia-2-azabicyclo[3.3.0]octa-1,4,7-triene], the IC50 (in the test on total ATXN3 protein; in test [1]) was 501 to 5000 nM each time.
As for `C[C@H](N)Cc1sc2c(NCc3ccco3)snc2c1-c1ccncc1` [Compound 10, 7-[(S)-2-aminopropyl]-4-(furfurylamino)-8-(4-pyridyl)-3,6-dithia-2-azabicyclo[3.3.0]octa-1,4,7-triene], the IC50 (in the test with total ATXN3 protein; in test [1]) was 10000 to 40000 nM in each case.
For the molecule `C#Cc1c(C[C@H](C)N)sc2c(NCc3cccs3)snc12` [Compound 4, 5-[(2S)-2-aminopropyl]-6-ethynyl-N-(thiophen-2-ylmethyl)thieno[3,2-c][1,2]thiazol-3-amine], the IC50 (in the test with total ATXN3 protein; in test [1]) was 101 to 500 nM throughout.
As to `C#Cc1c(C[C@@H](N)CF)sc2c(NCc3ccco3)snc12` [Compound 23, 7-[(R)-2-amino-3-fluoropropyl]-8-ethynyl-4-(furfurylamino)-3,6-dithia-2-azabicyclo[3.3.0]octa-1,4,7-triene], the IC50 in the test on total ATXN3 protein was in the range of 501 to 5000 nM; in test [1], 101 to 500 nM.
Consider `C#Cc1c(C[C@@H](N)CO)sc2c(NCc3cccs3)snc12` [Compound 16, (R)-2-amino-3-(8-ethynyl-4-thenylamino-3,6-dithia-2-azabicyclo[3.3.0]octa-1,4,7-trien-7-yl)-1-propanol], for which the IC50 (in the test with total ATXN3 protein; in test [1]) was 0.01 to 100 nM in each case.
For the molecule `C#Cc1c(C[C@@H](N)COC)sc2c(NCc3ccco3)snc12` [Compound 14, 7-[(R)-2-amino-3-methoxypropyl]-8-ethynyl-4-(furfurylamino)-3,6-dithia-2-azabicyclo[3.3.0]octa-1,4,7-triene], the IC50 (with total ATXN3 protein; in test [1]) was 501 to 5000 nM throughout.
Take `C#Cc1c(C[C@@H](N)CF)sc2c(NCc3cccs3)snc12` [Compound 17, 7-[(R)-2-amino-3-fluoropropyl]-8-ethynyl-4-thenylamino-3,6-dithia-2-azabicyclo[3.3.0]octa-1,4,7-triene]: the IC50 in the test with total ATXN3 protein fell in the range of 501 to 5000 nM; in test [1], 101 to 500 nM.
Take `C[C@H](N)Cc1sc2c(NCc3cccs3)snc2c1-n1cccn1` [Compound 3, 7-[(S)-2-aminopropyl]-8-(1-pyrazolyl)-4-thenylamino-3,6-dithia-2-azabicyclo[3.3.0]octa-1,4,7-triene]: the IC50 (in the test on total ATXN3 protein; in test [1]) was 10000 to 40000 nM throughout.
With `C[C@H](F)[C@H](N)Cc1sc2c(NCc3cccs3)snc2c1-c1ncco1` [Compound 41, 7-[(2R,3S)-2-amino-3-fluorobutyl]-8-(1,3-oxazol-2-yl)-4-thenylamino-3,6-dithia-2-azabicyclo[3.3.0]octa-1,4,7-triene], the IC50 (in the test with total ATXN3 protein; in test [1]) was 501 to 5000 nM in each case.
With `C#Cc1c(C[C@@H](N)C(F)F)sc2c(NCc3ccco3)snc12` [Compound 37, 7-[(R)-2-amino-3,3-difluoropropyl]-8-ethynyl-4-(furfurylamino)-3,6-dithia-2-azabicyclo[3.3.0]octa-1,4,7-triene], the IC50 (with total ATXN3 protein; in test [1]) was 501 to 5000 nM throughout.
`C#Cc1c(C[C@@H](N)CC2CC2)sc2c(NCc3cccs3)snc12` [Compound 33, 7-[(S)-2-amino-3-cyclopropylpropyl]-8-ethynyl-4-thenylamino-3,6-dithia-2-azabicyclo[3.3.0]octa-1,4,7-triene]: the half-inhibitory concentration (IC50) (with total ATXN3 protein; in test [1]) was 501 to 5000 nM in each case.
Turning to `C[C@H](N)Cc1sc2c(NCc3cccs3)snc2c1-c1ccncc1` [Compound 5, 7-[(S)-2-aminopropyl]-8-(4-pyridyl)-4-thenylamino-3,6-dithia-2-azabicyclo[3.3.0]octa-1,4,7-triene], the IC50 (in the test on total ATXN3 protein; in test [1]) was 10000 to 40000 nM each time.
As for `C#Cc1c(C[C@@H](N)CC2CC2)sc2c(NCc3ccco3)snc12` [Compound 32, 7-[(S)-2-amino-3-cyclopropylpropyl]-8-ethynyl-4-(furfurylamino)-3,6-dithia-2-azabicyclo[3.3.0]octa-1,4,7-triene], the IC50 (with total ATXN3 protein; in test [1]) was 101 to 500 nM each time.
On to `C#Cc1c(C[C@H](C)N)sc2c(NCc3ccco3)snc12` [Compound 11, 7-[(S)-2-aminopropyl]-8-ethynyl-4-(furfurylamino)-3,6-dithia-2-azabicyclo[3.3.0]octa-1,4,7-triene], for which the IC50 (in the test on total ATXN3 protein; in test [1]) was 0.01 to 100 nM throughout.
For `C#Cc1c(C[C@@H](N)COC2CC2)sc2c(NCc3cccs3)snc12` [Compound 34, 7-[(R)-2-amino-3-cyclopropoxypropyl]-8-ethynyl-4-thenylamino-3,6-dithia-2-azabicyclo[3.3.0]octa-1,4,7-triene], the half-inhibitory concentration (IC50) (in the test with total ATXN3 protein; in test [1]) was 501 to 5000 nM in each case.
As to `C#Cc1c(C(F)(F)[C@H](C)N)sc2c(NCc3cccs3)snc12` [Compound 35, 7-[(S)-2-amino-1,1-difluoropropyl]-8-ethynyl-4-thenylamino-3,6-dithia-2-azabicyclo[3.3.0]octa-1,4,7-triene], the 50% inhibitory concentration (IC50) (in the test on total ATXN3 protein; in test [1]) was 501 to 5000 nM each time.
On to `C[C@H](N)Cc1sc2c(NCc3cccs3)snc2c1-c1cccnc1` [Compound 6, 7-[(S)-2-aminopropyl]-8-(3-pyridyl)-4-thenylamino-3,6-dithia-2-azabicyclo[3.3.0]octa-1,4,7-triene], for which the IC50 (in the test with total ATXN3 protein; in test [1]) was 10000 to 40000 nM in each case.
In the case of `C[C@H](N)Cc1sc2c(NCc3cccs3)snc2c1-n1ccnc1` [Compound 8, 5-[(2S)-2-aminopropyl]-6-(imidazol-1-yl)-N-(thiophen-2-ylmethyl)thieno[3,2-c][1,2]thiazol-3-amine], the IC50 (in the test with total ATXN3 protein; in test [1]) was 10000 to 40000 nM throughout.
`C#Cc1c(C[C@@H](N)[C@H](C)F)sc2c(NCc3nccs3)snc12` [Compound 22, 7-[(2R,3S)-2-amino-3-fluorobutyl]-8-ethynyl-4-{[(1,3-thiazol-2-yl)methyl]amino}-3,6-dithia-2-azabicyclo[3.3.0]octa-1,4,7-triene]: the IC50 lay in the range of 0.01 to 100 nM in the test with total ATXN3 protein and 101 to 500 nM in test [1].
On the same counts, the results for `C[C@H](N)Cc1sc2c(NCc3cccs3)snc2c1-c1ccccn1` [Compound 7, 5-[(2S)-2-aminopropyl]-6-(pyridin-2-yl)-N-(thiophen-2-ylmethyl)thieno[3,2-c][1,2]thiazol-3-amine] are 10000 to 40000 nM and 10000 to 40000 nM.
The like results for `C[C@H](N)Cc1sc2c(NCc3cccs3)snc2c1-c1ncco1` [Compound 40, 7-[(S)-2-aminopropyl]-8-(1,3-oxazol-2-yl)-4-thenylamino-3,6-dithia-2-azabicyclo[3.3.0]octa-1,4,7-triene] were, in that order, 501 to 5000 nM and 501 to 5000 nM.
Turning to `C#Cc1c(C[C@@H](N)COC)sc2c(NCc3ccccc3)snc12` [Compound 30, 7-[(R)-2-amino-3-methoxypropyl]-4-benzylamino-8-ethynyl-3,6-dithia-2-azabicyclo[3.3.0]octa-1,4,7-triene], the IC50 (in the test on total ATXN3 protein; in test [1]) was 10000 to 40000 nM each time.
`C#Cc1c(C[C@@H](N)CO)sc2c(NCc3ccco3)snc12` [Compound 13, (R)-2-amino-3-{8-ethynyl-4-(furfurylamino)-3,6-dithia-2-azabicyclo[3.3.0]octa-1,4,7-trien-7-yl}-1-propanol]: the IC50 (with total ATXN3 protein; in test [1]) was 0.01 to 100 nM throughout.
With `C#Cc1c(C[C@@H](N)[C@H](C)F)sc2c(NCc3ccco3)snc12` [Compound 25, 7-[(2R,3S)-2-amino-3-fluorobutyl]-8-ethynyl-4-(furfurylamino)-3,6-dithia-2-azabicyclo[3.3.0]octa-1,4,7-triene], the IC50 (in the test on total ATXN3 protein; in test [1]) was 101 to 500 nM each time.
In the case of `C[C@H](N)Cc1sc2c(NCc3ccco3)snc2c1-c1cccnc1` [Compound 12, 7-[(S)-2-aminopropyl]-4-(furfurylamino)-8-(3-pyridyl)-3,6-dithia-2-azabicyclo[3.3.0]octa-1,4,7-triene], the IC50 (with total ATXN3 protein; in test [1]) was 10000 to 40000 nM each time.
Consider `C#Cc1c(C[C@@H](N)[C@@H](C)F)sc2c(NCc3ccco3)snc12` [Compound 24, 7-[(2R,3R)-2-amino-3-fluorobutyl]-8-ethynyl-4-(furfurylamino)-3,6-dithia-2-azabicyclo[3.3.0]octa-1,4,7-triene], for which the IC50 is 501 to 5000 nM in the test with total ATXN3 protein and 101 to 500 nM in test [1].
